Data taken from ChEMBL document CHEMBL4346757, “Synthesis and biological evaluation of 7-methoxy-1-(3,4,5-trimethoxyphenyl)-4,5-dihydro-2H-benzo[e]indazoles as new colchicine site inhibitors” (Bioorg Med Chem Lett, 2019).

Columns and labels:
HCT-116 = test: Growth inhibition of human HCT116 cells assessed as cell growth at 1 uM after 48 hrs by SRB assay relative to control; assay type: functional; details: HCT-116, 48 h, read-out: Activity
COLO 205 = test: Growth inhibition of human COLO205 cells assessed as cell growth at 10 uM after 48 hrs by SRB assay relative to control; assay type: functional; details: COLO 205, 48 h, read-out: Activity
SK-MEL-5 [1] = test: Growth inhibition of human SK-MEL-5 cells assessed as cell growth at 100 uM after 48 hrs by SRB assay relative to control; assay type: functional; details: SK-MEL-5, 48 h, read-out: Activity
Tubulin = Tubulin (Bos taurus, UniProt Q6B856+Q862L2+Q862F3); test: Inhibition of bovine brain tubulin polymerization measured every 1 min for 60 mins by turbidimetry based microplate reader analysis
UACC-257 = test: Cytotoxicity against human UACC257 cells assessed as growth inhibition after 48 hrs by SRB assay; assay type: functional; details: UACC-257, 48 h
OVCAR-8 = test: Growth inhibition of human OVCAR8 cells assessed as cell growth at 1 uM after 48 hrs by SRB assay relative to control; assay type: functional; details: OVCAR-8, 48 h, read-out: Activity
DU-145 = test: Growth inhibition of human DU145 cells assessed as cell growth at 0.01 uM after 48 hrs by SRB assay relative to control; assay type: functional; details: DU-145, 48 h, read-out: Activity
HOP-62 = test: Growth inhibition of human HOP62 cells assessed as cell growth at 0.01 uM after 48 hrs by SRB assay relative to control; assay type: functional; details: HOP-62, 48 h, read-out: Activity
NCI-H322M = test: Growth inhibition of human NCI-H322M cells assessed as cell growth at 100 uM after 48 hrs by SRB assay relative to control; assay type: functional; details: read-out: Activity
UACC-62 = test: Growth inhibition of human UACC62 cells assessed as cell growth at 0.01 uM after 48 hrs by SRB assay relative to control; assay type: functional; details: UACC-62, 48 h, read-out: Activity
NCI-H460 = test: Growth inhibition of human NCI-H460 cells assessed as cell growth at 1 uM after 48 hrs by SRB assay relative to control; assay type: functional; details: NCI-H460, 48 h, read-out: Activity
IGROV-1 [2] = test: Growth inhibition of human IGROV1 cells assessed as cell growth at 0.1 uM after 48 hrs by SRB assay relative to control; assay type: functional; details: IGROV-1, 48 h, read-out: Activity
SK-OV-3 [3] = test: Growth inhibition of human SKOV3 cells assessed as cell growth at 0.1 uM after 48 hrs by SRB assay relative to control; assay type: functional; details: SK-OV-3, 48 h, read-out: Activity
HOP-92 = test: Growth inhibition of human HOP92 cells assessed as cell growth at 10 uM after 48 hrs by SRB assay relative to control; assay type: functional; details: HOP-92, 48 h, read-out: Activity
SK-OV-3 [4] = test: Growth inhibition of human SKOV3 cells assessed as cell growth at 100 uM after 48 hrs by SRB assay relative to control; assay type: functional; details: SK-OV-3, 48 h, read-out: Activity
CAKI-1 = test: Growth inhibition of human Caki1 cells assessed as cell growth at 0.1 uM after 48 hrs by SRB assay relative to control; assay type: functional; details: CAKI-1, 48 h, read-out: Activity
LOX IMVI = test: Growth inhibition of human LOXIMVI cells assessed as cell growth at 0.01 uM after 48 hrs by SRB assay relative to control; assay type: functional; details: read-out: Activity
ACHN = test: Growth inhibition of human ACHN cells assessed as cell growth at 10 uM after 48 hrs by SRB assay relative to control; assay type: functional; details: read-out: Activity
A498 [5] = test: Growth inhibition of human A498 cells assessed as cell growth at 10 uM after 48 hrs by SRB assay relative to control; assay type: functional; details: A498, 48 h, read-out: Activity
BT-549 = test: Cytotoxicity against human BT549 cells assessed as growth inhibition after 48 hrs by SRB assay; assay type: functional; details: BT-549, 48 h
RXF 393 = test: Growth inhibition of human RXF393 cells assessed as cell growth at 0.01 uM after 48 hrs by SRB assay relative to control; assay type: functional; details: RXF 393, 48 h, read-out: Activity
SR = test: Growth inhibition of human SR cells assessed as cell growth at 0.1 uM after 48 hrs by SRB assay relative to control; assay type: functional; details: read-out: Activity
Hs-578T = test: Growth inhibition of human Hs 578T cells assessed as cell growth at 0.1 uM after 48 hrs by SRB assay relative to control; assay type: functional; details: read-out: Activity
T47D = test: Growth inhibition of human T47D cells assessed as cell growth at 10 uM after 48 hrs by SRB assay relative to control; assay type: functional; details: read-out: Activity
SW-620 = test: Growth inhibition of human SW620 cells assessed as cell growth at 1 uM after 48 hrs by SRB assay relative to control; assay type: functional; details: SW-620, 48 h, read-out: Activity
A498 [6] = test: Growth inhibition of human A498 cells assessed as cell growth at 100 uM after 48 hrs by SRB assay relative to control; assay type: functional; details: A498, 48 h, read-out: Activity
OVCAR-3 = test: Growth inhibition of human OVCAR3 cells assessed as cell growth at 0.01 uM after 48 hrs by SRB assay relative to control; assay type: functional; details: OVCAR-3, 48 h, read-out: Activity
HCC 2998 = test: Growth inhibition of human HCC2998 cells assessed as cell growth at 1 uM after 48 hrs by SRB assay relative to control; assay type: functional; details: HCC 2998, 48 h, read-out: Activity
SK-MEL-5 [7] = test: Cytotoxicity against human SK-MEL-5 cells assessed as growth inhibition after 48 hrs by SRB assay; assay type: functional; details: SK-MEL-5, 48 h
IGROV-1 [8] = test: Growth inhibition of human IGROV1 cells assessed as cell growth at 0.01 uM after 48 hrs by SRB assay relative to control; assay type: functional; details: IGROV-1, 48 h, read-out: Activity
MDA-MB-231 = test: Growth inhibition of human MDA-MB-231/ATCC cells assessed as cell growth at 1 uM after 48 hrs by SRB assay relative to control; assay type: functional; details: MDA-MB-231, 48 h, read-out: Activity
KM12 = test: Growth inhibition of human KM12 cells assessed as cell growth at 1 uM after 48 hrs by SRB assay relative to control; assay type: functional; details: KM12, 48 h, read-out: Activity
[9] = read-out: LC50 (the source's name)
[10] = read-out: pLC50 (the source's name) (converted)

COc1ccc2c(c1)CCc1n[nH]c(-c3cc(OC)c(OC)c(OC)c3)c1-2 gave a growth at 1 µM (HCT-116) of 1%, a growth at 10 µM (COLO 205) of -61% and a growth at 100 µM (SK-MEL-5 [1]) of -97%. The IC50 (Tubulin) was 3.4 µM, the CC50 (UACC-257; [9]) was > 100 µM and the TGI (UACC-257; read-out: TGI) was 34.2 µM. The CC50 (UACC-257; [10]) was > 100 µM, the TGI (UACC-257; read-out: pTGI (converted)) was 33.9 µM and the growth at 1 µM (OVCAR-8) was 10%. The growth at 0.01 µM (DU-145) was 13%, the growth at 0.01 µM (HOP-62) was 11% and the growth at 100 µM (NCI-H322M) was -21%. The growth at 0.01 µM (UACC-62) was 23%, the growth at 1 µM (NCI-H460) was 2% and the growth at 0.1 µM (IGROV-1 [2]) was 29%. For the same compound, the growth at 0.1 µM (SK-OV-3 [3]) was -2%, the growth at 10 µM (HOP-92) was 42% and the growth at 100 µM (SK-OV-3 [4]) was -50%. The growth at 0.1 µM (CAKI-1) was 23%, the growth at 0.01 µM (LOX IMVI) was 21% and the growth at 10 µM (ACHN) was 15%. For the same compound, the growth at 10 µM (A498 [5]) was -17%, the GI50 (BT-549; read-out: GI50) was < 0.01 µM and the LC50 (50% lethal concentration) (BT-549; read-out: LC50) was > 100 µM. For the same compound, the TGI (BT-549; read-out: TGI) was 10.6 µM, the GI50 (BT-549; read-out: pGI50 (converted)) was < 0.01 µM and the LC50 (50% lethal concentration) (BT-549; read-out: pLC50 (converted)) was > 100 µM. The TGI (BT-549; read-out: pTGI (converted)) was 10.7 µM, the growth at 0.01 µM (RXF 393) was -8% and the growth at 0.1 µM (SR) was 18%. For the same compound, the growth at 0.1 µM (Hs-578T) was 17%, the growth at 10 µM (T47D) was 35% and the growth at 1 µM (SW-620) was 14%. For the same compound, the growth at 100 µM (A498 [6]) was -61%, the growth at 0.01 µM (OVCAR-3) was 14% and the growth at 1 µM (HCC 2998) was 14%. For the same compound, the GI50 (SK-MEL-5 [7]; read-out: GI50) was < 0.01 µM, the CC50 (SK-MEL-5 [7]; [9]) was 24.2 µM and the TGI (SK-MEL-5 [7]; read-out: TGI) was < 0.01 µM. The GI50 (SK-MEL-5 [7]; read-out: pGI50 (converted)) was < 0.01 µM, the CC50 (SK-MEL-5 [7]; [10]) was 24 µM and the TGI (SK-MEL-5 [7]; read-out: pTGI) was < 0.01 µM. The growth at 0.01 µM (IGROV-1 [8]) was 39%, the growth at 1 µM (MDA-MB-231) was 29% and the growth at 1 µM (KM12) was 5%.
